# Like-named read-outs stand apart in the source and are kept apart here.
# Tests used:
# PSMA = target: T1, PSMA (Homo sapiens, UniProt Q04609); assay: Competitive binding assay (IC50) on LNCaP cells with ([125I]I-BA)KuE as radioligand; settings: ([125I]I-BA)KuE 0.2 nM, HBSS (1% BSA), 4 °C, 1 h
# T1 construct: host or cells: LNCaP human prostate cancer cells
# Procedure: (§1) PSMA-positive LNCaP cells (300265; Cell Lines Service, Eppelheim, Germany) were cultivated in Dulbecco’s modified Eagle medium/Nutrition Mixture F-12 with GlutaMAX (1/1, DMEM-F12, Thermo Fisher Scientific, Darmstadt, Germany) supplemented with 10% fetal bovine serum (Merck KGaA, Darmstadt, Germany) and kept at 37 °C in a humidified 5% CO2 atmosphere. One day (24 ± 2 h) prior to all in vitro experiments, the cultivated LNCaP cells were harvested using a mixture of trypsin/ethylenediamine-tetraacetic acid (0.05%/0.02%) in PBS (Thermo Fisher Scientific, Darmstadt, Germany) and centrifuged at 1300 rpm (ca. 190×g) for 3 min at room temperature (Heraeus Megafuge 16, Thermo Fisher Scientific, Darmstadt, Germany). After centrifugation, the supernatant was disposed and the cell pellet was resuspended in culture medium. Cells were counted with a Neubauer hemocytometer (Paul Marienfeld GmbH & Co. KG, Lauda-Königshofen, Germany) and seeded in 24-well plates.
# (§2) Detailed information on affinity and internalization experiments is provided in the supporting information. […] IC50 values of (^natI-BA)KuE were determined on the same day for monitoring assay performance and to identify abnormal deviations in uptake and/or affinity. […] Data were corrected for non-specific binding and normalized to the specific internalization observed for the radioiodinated reference compound (n = 3).
# The culture medium was removed and the cells were washed with 500 µL of Hank’s balanced salt solution (HBSS) (Merck KGaA, Darmstadt, Germany), containing 1% bovine serum albumin (BSA) (Merck KGaA, Darmstadt, Germany). Afterwards, 200 µL of HBSS (1% BSA) were added to each well and equilibrated on ice (4 °C) for 15 min. […] Experiments were carried out in triplicates for each concentration. The final concentrations of unlabeled ligand ranged from 10^-11 - 10^-5 M and the final radioligand concentration was 0.2 nM in all binding assays. The cells were incubated for one hour at 4 °C. Incubation was terminated by removal of the incubation medium. The cells were washed with 250 µL of HBSS (1% BSA) and the wash medium was combined with the respective supernatant. This fraction represents the amount of free radioligand. The cells were lysed by addition of 250 µL of 1 M aqueous NaOH. The lysate of each well was transferred to the respective vial as well as 250 µL of 1 M NaOH used for rinsing the well. Quantification of the amount of free and bound activity was performed in a γ-counter. The corresponding IC50 values were calculated using the GraphPad PRISM7 software.
# [1] = test system: LNCaP tumor xenograft-bearing CB17-SCID mice; format: in vivo, mouse
# Procedure: All animal experiments were conducted in accordance with general animal welfare regulations in Germany (German animal protection act, as amended on 18.05.2018, Art. 141 G v. 29.3.2017 I 626, approval no. 55.2–1-54-2532-71-13) and the institutional guidelines for the care and use of animals. To establish tumor xenografts, LNCaP cells (approx. 10^7 cells) were suspended in 200 μL of a 1/1 mixture (v/v) of DMEM F-12 and Matrigel (BD Biosciences, Heidelberg, Germany) and inoculated subcutaneously onto the right shoulder of 6–8 weeks old CB17-SCID mice (Charles River Laboratories, Sulzfeld, Germany). Mice were used for experiments when tumor size reached 5–10 mm in diameter (3–6 weeks after inoculation).
# (§3) Approximately 2–10 MBq (0.20 nmol) of the ^177Lu-labeled PSMA inhibitors were injected into the tail vein of LNCaP tumor xenograft-bearing male CB17-SCID mice (n = 3 to 5). They were sacrificed by CO2 asphyxiation and cervical dislocation either 1 h or 24 h post injection (p.i.) (n = 3 for [^177Lu]Lu-5, -6 & -7 (proinhibitor compounds I-III), n = 4 for [^177Lu]Lu-10 (alkyne), n = 5 for [^177Lu]Lu-3 (carbamate I) and n = 5 for [^177Lu]Lu-11 (tetrazole)). Selected organs were removed, weighed and organ activities measured in a γ-counter.
# as §3, with “2 - 10” for “2–10”, “(alkyne) and” for “(alkyne),”
# LNCaP cells = assay: Internalization study of 177Lu-labeled ligands in LNCaP cells, normalized to ([125I]I-BA)KuE; format: cell-based, human; settings: 1 h, 37 °C, 1.0 nM 177Lu-compound, normalized to ([125I]I-BA)KuE
# Procedure: as §1, §2
# The culture medium was removed and the cells were washed with 500 µL of DMEM-F12 containing 5% BSA. Afterwards, 200 µL of DMEM-F12 (5% BSA) were added to each well and left to equilibrate at 37 °C for 15 min. 25 µL of DMEM-F12 (5% BSA) were added to each well, followed by the addition of 25 µL of the respective ^177Lu-labeled ligand (10.0 nM in DMEM-F12 (5% BSA)). For blocking PSMA-specific binding and uptake, 25 µL of 2-(phosphonomethyl)pentane-1,5-dioic acid (2-PMPA) (100 µM in DMEM (5% BSA)) instead of DMEM-F12 (5% BSA) were added prior to radiotracer addition. […] Each experiment (control and blockade) was performed in triplicate. […] Incubation was terminated by placing the plate on ice (4 °C, 1 min) and removal of the incubation medium. The cells were washed with 250 µL of ice-cold PBS and the wash medium was combined with the respective supernatant. This fraction represents the amount of free radioligand. 250 µL of ice-cold 2-PMPA (10 µM in PBS) were added and the cells were incubated for 10 min at 4 °C. Afterwards, the cells were rinsed again with 250 µL of ice-cold PBS and the wash medium was combined with the respective supernatant. This fraction represents the amount of cell surface-bound ligand. In the last step, the cells were lysed by addition of 250 µL of 1 M aqueous NaOH. After 20 min, the lysate of each well was transferred to the respective vial as well as 250 µL of 1 M NaOH used for rinsing the well. This fraction represents the amount of internalized radioligand. Quantification of the amount of free, cell surface-bound and internalized activity was performed in a γ-counter.
# T1 sequence (Q04609 whole entry): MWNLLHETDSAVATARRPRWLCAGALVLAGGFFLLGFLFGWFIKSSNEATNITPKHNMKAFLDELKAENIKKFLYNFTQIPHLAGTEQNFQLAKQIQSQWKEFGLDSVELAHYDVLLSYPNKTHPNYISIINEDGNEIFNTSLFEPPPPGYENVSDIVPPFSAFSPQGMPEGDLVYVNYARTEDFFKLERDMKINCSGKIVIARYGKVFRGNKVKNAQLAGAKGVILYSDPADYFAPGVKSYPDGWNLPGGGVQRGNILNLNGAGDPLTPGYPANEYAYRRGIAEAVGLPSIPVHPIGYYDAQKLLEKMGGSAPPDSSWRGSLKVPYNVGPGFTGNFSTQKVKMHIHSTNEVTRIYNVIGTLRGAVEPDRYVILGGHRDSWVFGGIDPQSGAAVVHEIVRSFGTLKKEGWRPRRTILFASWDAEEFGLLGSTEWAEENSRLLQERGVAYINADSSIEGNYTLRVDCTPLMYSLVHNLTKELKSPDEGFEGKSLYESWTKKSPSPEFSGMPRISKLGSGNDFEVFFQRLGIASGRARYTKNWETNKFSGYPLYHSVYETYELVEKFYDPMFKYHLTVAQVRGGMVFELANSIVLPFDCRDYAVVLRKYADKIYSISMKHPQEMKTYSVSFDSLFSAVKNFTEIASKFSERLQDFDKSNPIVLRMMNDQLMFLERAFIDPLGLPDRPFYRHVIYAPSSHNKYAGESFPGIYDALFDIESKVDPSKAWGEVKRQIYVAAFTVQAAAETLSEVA
structure (smiles),measurement,setting,value
CCCCC[C@H](NC(=O)N[C@@H](CCC(=O)N[C@H](CCCNC(=O)CCC(=O)NCCCC[C@@H](NC(=O)[C@@H](CNC(=O)c1ccc([Si](F)(C(C)(C)C)C(C)(C)C)cc1)NC(=O)CN1CCN(CC(=O)[O-])CCN(CC(=O)[O-])CCN(CC(=O)[O-])CC1)C(=O)O)C(=O)O)C(=O)O)C(=O)O.[Lu+3] [^natLu-8],IC50,PSMA,> 2000 nM
CC(C)(C)[Si](F)(c1ccc(C(=O)NC[C@@H](NC(=O)CN2CCN(CC(=O)[O-])CCN(CC(=O)[O-])CCN(CC(=O)[O-])CC2)C(=O)N[C@H](CCCCNC(=O)CCC(=O)NCCC[C@@H](NC(=O)CC[C@H](NC(=O)N[C@@H](Cc2ccco2)C(=O)O)C(=O)O)C(=O)O)C(=O)O)cc1)C(C)(C)C.[Lu+3] [^natLu-9],IC50,PSMA,> 440 nM
CC(C)(C)[Si](F)(c1ccc(C(=O)NC[C@@H](NC(=O)CN2CCN(CC(=O)[O-])CCN(CC(=O)[O-])CCN(CC(=O)[O-])CC2)C(=O)N[C@H](CCCCNC(=O)CCC(=O)NCCC[C@@H](NC(=O)CC[C@H](NC(=O)O[C@@H](CCC(=O)O)C(=O)O)C(=O)O)C(=O)O)C(=O)O)cc1)C(C)(C)C.[Lu+3] [^natLu/[^177Lu]Lu-3],Biodistribution Adrenals,[1]; 1 h p.i.,1.46 ± 0.70 % ID/g
same,Biodistribution Blood,[1]; 1 h p.i.,0.97 ± 0.18 % ID/g
same,Biodistribution Bone,[1]; 1 h p.i.,0.18 ± 0.02 % ID/g
same,Biodistribution Heart,[1]; 1 h p.i.,0.36 ± 0.04 % ID/g
same,Biodistribution Intestine,[1]; 1 h p.i.,0.36 ± 0.17 % ID/g
same,Biodistribution Kidneys,[1]; 1 h p.i.,61.8 ± 25.9 % ID/g
same,Biodistribution Liver,[1]; 1 h p.i.,0.87 ± 0.28 % ID/g
same,Biodistribution Lung,[1]; 1 h p.i.,2.88 ± 2.96 % ID/g
same,Biodistribution Muscle,[1]; 1 h p.i.,0.13 ± 0.04 % ID/g
same,Biodistribution Pancreas,[1]; 1 h p.i.,0.25 ± 0.06 % ID/g
same,Biodistribution Parotid gland,[1]; 1 h p.i.,0.62 ± 0.20 % ID/g
same,Biodistribution Spleen,[1]; 1 h p.i.,2.51 ± 0.95 % ID/g
same,Biodistribution Stomach,[1]; 1 h p.i.,0.30 ± 0.09 % ID/g
same,Biodistribution Submandibular gland,[1]; 1 h p.i.,0.37 ± 0.08 % ID/g
same,Biodistribution Tumor,[1]; 1 h p.i.,5.31 ± 0.94 % ID/g
same,Ratio Tumor-to-blood,[1]; 1 h p.i.,5.57 ± 1.18
same,Ratio Tumor-to-kidney,[1]; 1 h p.i.,0.09 ± 0.03
same,Ratio Tumor-to-liver,[1]; 1 h p.i.,6.61 ± 2.19
same,Ratio Tumor-to-muscle,[1]; 1 h p.i.,44.1 ± 9.0
same,Ratio Tumor-to-parotid gland,[1]; 1 h p.i.,9.09 ± 3.13
same,Ratio Tumor-to-submandibular gland,[1]; 1 h p.i.,14.7 ± 3.5
same,Biodistribution Adrenals,[1]; 24 h p.i.,0.04 ± 0.01 % ID/g
same,Biodistribution Bone,[1]; 24 h p.i.,0.02 ± 0.01 % ID/g
same,Biodistribution Heart,[1]; 24 h p.i.,0.02 ± 0.01 % ID/g
same,Biodistribution Intestine,[1]; 24 h p.i.,0.12 ± 0.06 % ID/g
same,Biodistribution Kidneys,[1]; 24 h p.i.,0.31 ± 0.05 % ID/g
same,Biodistribution Liver,[1]; 24 h p.i.,0.13 ± 0.05 % ID/g
same,Biodistribution Lung,[1]; 24 h p.i.,0.03 ± 0.01 % ID/g
same,Biodistribution Muscle,[1]; 24 h p.i.,0.01 ± 0.01 % ID/g
same,Biodistribution Pancreas,[1]; 24 h p.i.,0.02 ± 0.01 % ID/g
same,Biodistribution Parotid gland,[1]; 24 h p.i.,0.04 ± 0.02 % ID/g
same,Biodistribution Spleen,[1]; 24 h p.i.,0.09 ± 0.01 % ID/g
same,Biodistribution Stomach,[1]; 24 h p.i.,0.06 ± 0.04 % ID/g
same,Biodistribution Submandibular gland,[1]; 24 h p.i.,0.03 ± 0.01 % ID/g
same,Biodistribution Tumor,[1]; 24 h p.i.,1.20 ± 0.55 % ID/g
same,Ratio Tumor-to-blood,[1]; 24 h p.i.,947 ± 652
same,Ratio Tumor-to-kidney,[1]; 24 h p.i.,3.80 ± 1.36
same,Ratio Tumor-to-liver,[1]; 24 h p.i.,8.94 ± 2.94
same,Ratio Tumor-to-muscle,[1]; 24 h p.i.,127 ± 92
same,Ratio Tumor-to-parotid gland,[1]; 24 h p.i.,31.8 ± 9.3
same,Ratio Tumor-to-submandibular gland,[1]; 24 h p.i.,34.5 ± 9.2
same,factor by which tumor-to-submandibular gland and tumor-to-parotid gland ratios are lower than for [177Lu]Lu-1,[1]; 24 h p.i.,8
same,IC50,PSMA,7.1 ± 0.7 nM
same,%Internalization compared to the reference,LNCaP cells,1 h: 67.8 ± 0.5%
C#CC[C@H](NC(=O)N[C@@H](CCC(=O)N[C@H](CCCNC(=O)CCC(=O)NCCCC[C@@H](NC(=O)[C@@H](CNC(=O)c1ccc([Si](F)(C(C)(C)C)C(C)(C)C)cc1)NC(=O)CN1CCN(CC(=O)[O-])CCN(CC(=O)[O-])CCN(CC(=O)[O-])CC1)C(=O)O)C(=O)O)C(=O)O)C(=O)O.[Lu+3] [^natLu/[^177Lu]Lu-10],Biodistribution Adrenals,[1]; 24 h p.i.,0.02 ± 0.02 % ID/g
same,Biodistribution Blood,[1]; 24 h p.i.,0.01 ± 0.01 % ID/g
same,Biodistribution Bone,[1]; 24 h p.i.,0.03 ± 0.01 % ID/g
same,Biodistribution Heart,[1]; 24 h p.i.,0.01 ± 0.00 % ID/g
same,Biodistribution Intestine,[1]; 24 h p.i.,0.32 ± 0.29 % ID/g
same,Biodistribution Kidneys,[1]; 24 h p.i.,1.29 ± 0.28 % ID/g
same,Biodistribution Liver,[1]; 24 h p.i.,0.09 ± 0.04 % ID/g
same,Biodistribution Lung,[1]; 24 h p.i.,0.03 ± 0.03 % ID/g
same,Biodistribution Pancreas,[1]; 24 h p.i.,0.01 ± 0.01 % ID/g
same,Biodistribution Parotid gland,[1]; 24 h p.i.,0.02 ± 0.00 % ID/g
same,Biodistribution Spleen,[1]; 24 h p.i.,0.04 ± 0.00 % ID/g
same,Biodistribution Stomach,[1]; 24 h p.i.,0.12 ± 0.11 % ID/g
same,Biodistribution Submandibular gland,[1]; 24 h p.i.,0.02 ± 0.00 % ID/g
same,Biodistribution Tumor,[1]; 24 h p.i.,0.10 ± 0.03 % ID/g
same,Ratio Tumor-to-blood,[1]; 24 h p.i.,26.8 ± 16.9
same,Ratio Tumor-to-kidney,[1]; 24 h p.i.,0.08 ± 0.01
same,Ratio Tumor-to-liver,[1]; 24 h p.i.,1.46 ± 0.88
same,Ratio Tumor-to-muscle,[1]; 24 h p.i.,27.7 ±10.9
same,Ratio Tumor-to-parotid gland,[1]; 24 h p.i.,6.38 ± 3.06
same,Ratio Tumor-to-submandibular gland,[1]; 24 h p.i.,6.11 ± 1.78
same,factor by which tumor-to-submandibular gland and tumor-to-parotid gland ratios are lower than for [177Lu]Lu-1,[1]; 24 h p.i.,45
same,IC50,PSMA,138 ± 53 nM
same,%Internalization compared to the reference,LNCaP cells,1 h: 1.2 ± 0.4%
same,%Internalization compared to the reference,LNCaP cells; listed as [^177Lu]Lu-10,1.2 ± 0.4%

# Source: PMC7910394, “Design of PSMA ligands with modifications at the inhibitor part: an approach to reduce the salivary gland uptake of radiolabeled PSMA inhibitors?” (EJNMMI Radiopharmacy and Chemistry, 2021)
